Series [1] concerns detached leaf segments of Triticum aestivum cv. Hereward. The series can be described thus: Senescence bioassay on wheat leaf segments in dark conditions. To be noted: Triticum aestivum, foliar; dark, 96 h, 25° C., chlorophyll absorbance 665 nm; read-out: Senescence bioassay (IC50). As to the method: (§1) Seeds of winter wheat, Triticum aestivum cv. Hereward, were washed under running water for 24 hours and then sown on perlite soaked with Hogland's solution. They were placed in the growth chamber at 25° C. with a 16/8 h light period at 50 μmol·m^−2·s^−1. After 7 days, the first leaf was fully developed and the second leaf had started to grow. A tip section of the first leaf, approximately 4 cm long, was removed from 4 seedlings and trimmed slightly to a combined weight of 100 mg. The basal ends of the four leaf tips were placed into the 96-wells plate containing 150 μL of the tested derivative solution each. The entire plate was inserted into a plastic box lined with paper tissues soaked in distilled water to prevent leaf sections from drying out. After 96 h incubation in the dark at 25° C., the leaves were removed and chlorophyll extracted by heating at 80° C. for 10 min in 5 mL of 80% ethanol (v/v). The sample volume was then restored to 5 mL by the addition of 80% ethanol (v/v). The absorbance of the extract was recorded at 665 nm. In addition, chlorophyll extracts from fresh leaves and leaf tips incubated in deionised water were measured. The results are means of five replicates and the entire test was repeated at least twice. […] The compounds to be tested were dissolved in dimethylsulfoxide (DMSO) and the solution brought up to 10^−3 M with distilled water. […] The IC50 values were determined for standard (BAP) and novel tested compounds.

Series [2] has the same test system. The series can be described thus: Senescence bioassay on wheat leaf segments in dark/light conditions. To be noted: foliar, 168 h, dark/light 8/16, 22° C., 7 days, read-out: Senescence bioassay (IC50). As to the method:
as §1
The ability of the novel compounds to retard chlorophyll degradation in detached wheat leaves was tested also in the light conditions. The experiment was performed as described in Example 7 with modifications as follows—the incubation of the leaves with the compounds was done in the dark/light conditions 8/16 (light—100 μmol·m^−2·s^−1) at 22° C. for 7 days. […] The newly prepared substituted 1,2,3-thiadiazol-5-yl urea derivatives of the invention are much stronger anti-senescent compounds in comparison to the BAP in retarding senescence under optimal (dark/light) conditions.

In series [3] the test system is detached leaves of Triticum aestivum cv. Hereward. The series is described as follows: Membrane lipid peroxidation (MDA, TBA method) in detached wheat leaves in the dark. To be noted: four days in the dark. On the procedure:
A typical symptom associated with senescence as a direct consequence of increased reactive oxygen species is membrane lipid peroxidation which produces malondialdehyde (MDA). Therefore the levels of MDA, a decomposition product of lipid peroxidation, were measured in detached wheat leaves that were exposed to the prepared novel derivatives or BAP for four days in the dark as described in Example 7. MDA levels were measured using a thiobarbituric acid (TBA) method. In detail, 100 mg of fresh plant material was homogenized by high speed shaking in a ball mill (MM301, Retsch, Germany) with 1 mL of 70% methanol. The crude extract was centrifuged at 10,000×g for 5 min, and 100 μL aliquot of supernatant was vortexed with 100 μL of 0.5% (w/v) TBA containing 0.1% (w/v) trichloroacetic acid, and the resulting solution was then incubated for 30 min at 95° C. The samples were quickly cooled on ice and centrifuged for 5 min at 1000 g. The absorbance of supernatant was measured at 532 nm with background subtraction at 600 nm and the amount of MDA-TBA complex was calculated from the coefficient of absorbance 155 mM^−1 cm^−1.

The subject of series [4] is Arabidopsis thaliana (wild-type Col-0). The series is described as follows: Root growth and lateral root formation of Arabidopsis. Format: in vivo. The settings on record: 10 nM, two weeks after transfer. On the procedure:
To investigate in vivo effect of the new derivatives on the root growth and development, seeds of Arabidopsis thaliana (wild-type Col-0) were surface sterilized and sown on vertical plates on half-strength Murashige-Skoog medium (supplied with 0.1% sucrose and 6 g/L phytagel) containing 10 nM BAP or 10 nM 1,2,3-thiadiazol-5-yl-urea derivative, or 0.01% DMSO (solvent control). After vernalization (4 days in the dark, 4° C.) plates were transferred into the growth chamber (22° C., 16/8 light/dark). Two weeks after transfer, seedlings were photographed and root elongation and lateral root formation was scored using Scion image software (Scion Corp., Frederick, Md., USA). At least 40 plants were measured for each treatment.

Series [5] in a line: Toxicity towards human skin fibroblasts (Calcein AM assay). The series is classed as cell-based. On the procedure:
Cytotoxicity of the compounds to human skin fibroblasts (BJ cell line) was determined in a standard Calceinovém AM test. Cells were maintained in plastic tissue culture flasks and grown in Dulbecco's modified Eagle's medium for cell culture (DMEM) at 37° C. in 5% CO2 and 100% humidity. Cells were placed into 96-well microtiter plates (Nunc, Denmark) and after 12 hours pre-incubation, the tested compound was added to a final concentration ranging from […]. Cells were incubated for 72 hours. At the end of incubation period Calcein AM was added in PBS to a final concentration of […]. After 1 hour of incubation fluorescence was measured at 485/538 nm (ex/em wavelength) using Fluoroskan Ascent (Labsystems, Finland). IC50 values (the concentration causing reduction of calcein AM conversion to 50%) were calculated from the curves obtained. All experiments were repeated four times with a maximum deviation of 15%. Due to the limited solubility of substances in water, all the tested compounds were dissolved in DMSO and diluted with water to a final concentration.

The next series relates to wheat leaves. The series can be described thus: Ethylene production (defoliating activity) assay. On the set-up: species or system Triticum aestivum. The settings on record: 10 μM; for Ethylene produced: 96 h in the dark at 25° C., control 270 (±15). As to the method:
We investigated the effect of the compounds of the invention on ethylene production in wheat leaves. The leaves were obtained as described in Example 8, placed in 5 mL glass vials and immersed at 10 μM solutions of tested compounds of the invention or TDZ. Distilled water was used as a control treatment. After 96 h incubation in the dark at 25° C., 1 mL of air was taken from the vials and content of ethylene in it was determined using gas chromatography with the flame ionization detector (GC-FID) method described by Fišerová et al. (Fišerová H, Kula E, Klemš M, Reinöhl V (2001) Phytohormones as indicators of the degree of damage in birch (Betula pendula). Biológia 56: 405-409).

A further series relates to winter oilseed rape. The series is described as follows: Field experiment, winter oilseed rape, foliar spray. To be noted: 25 μM foliar spray, BBCH 50. The series is classed as in vivo. On the procedure: (§2) All field experiments were done according to criteria for Good Experimental Practices. Six repetitions (10 m^2 each) were used per one variant. Field trials were not treated by growth regulators and fungicides, except of applied compound 1-furfuryl-[1,2,3]thiadiazol-5-yl-urea. N-furfuryl-N′-1,2,3-thiadiazol-5-yl-urea was applied once at the precise time (extension growth BBCH 50), by foliar spray at a concentration of 25 μM. For each variant at least 50 plants were used to obtain morphology parameters. Statistical evaluation was executed in stat. program PAST v. 2.17c.

The subject of another series is spring barley. The series is described as follows: Field experiments, spring barley, years 2014 and 2015, foliar spray. The series is classed as in vivo. On the procedure: as §2
All field experiments were done according to criteria for Good Experimental Practices as described in example 17. N-furfuryl-N′-1,2,3-thiadiazol-5-yl-urea was applied once at the precise time (extension growth BBCH 50), by foliar spray at a concentration of 25 μM in a year 2014 and at a concentration of 5 μM in a year 2015. For each variant at least 50 plants were used to obtain morphology parameters. Statistical evaluation was executed in stat. program PAST v. 2.17c.

The text below walks through data of US9993002B2, “1,2,3-thiadiazol-5yl-urea derivatives, use thereof for regulating plant senescence and preparations containing these derivatives” (USTAV EXPERIMENTALNI BOTANIKY AV CR, V.V.I., priority 2014, dated 2018).

As usually defined, the IC50 is the concentration needed to halve the response being measured. What is called CC50 is the concentration at which the toxic effect on the cells reaches its halfway point. On to `COCC(C)NC(=O)Nc1cnns1` (stereo not drawn) [Compound 28, 1-(2-methoxy-1-methyl-ethyl)-3-[1,2,3]thiadiazol-5-yl-urea], for which the IC50 came to 8.6 µM in series [1] and 430 nM in series [2]. The MDA in series [3] was 13.9 (±0.9) nmol/g FW. Besides, the Lateral root number in series [4] was 16 (±7). For the same compound, the Primary root lenght in series [4] was 41 (±13) mm. Also, the CC50 at 72 h in series [5] was over 100 µM. Also, the “effect on ethylene evolution compared to control (in words)” value in the series with wheat leaves (96 h) is listed as “inhibition of ethylene evolution”. In addition, the Ethylene produced in the series on wheat leaves is recorded as 246 (±12) nL/g FW.
Regarding `C=CCNC(=O)Nc1cnns1` [Compound 50, 1-Allyl-3-[1,2,3]thiadiazol-5-yl-urea], in series [1], the IC50 was determined as 7.1 µM. In addition, the concentration for half-maximal inhibition (IC50) in series [2] worked out at 250 nM. Also, the MDA in series [3] is 17.4 (±1.3) nmol/g FW. In series [4], the Lateral root number is listed as 14 (±10) and the Primary root lenght was 42 (±12) mm. In series [5], the CC50 at 72 h was over 100 µM. The Ethylene produced in the series on wheat leaves is 279 (±18) nL/g FW.
Take `O=C(NCC1CCCO1)Nc1cnns1` (stereo not drawn) [Compound 75, 1-(tetrahydro-furan-2-yl-methyl)-3-[1,2,3]thiadiazol-5-yl-urea]: the IC50 in series [1] is 11.2 µM. The half-inhibitory concentration (IC50) in series [2] turned out to be 420 nM. In series [3], the MDA is 15.2 (±0.7) nmol/g FW. Moreover, in series [4], the Lateral root number is 17 (±6) and the Primary root lenght is recorded as 44 (±16) mm. Moreover, the CC50 at 72 h in series [5] is over 100 µM. Further, in the series with wheat leaves, the Ethylene produced is 282 (±19) nL/g FW.
Regarding `O=C(NCc1ccco1)Nc1cnns1` [N-furfuryl-N′-1,2,3-thiadiazol-5-yl-urea], the “Seed yield, % of control” value was 120.9% with winter oilseed rape; 104.8% in the series on spring barley (Year 2014, 25 μM foliar spray); 106.8% with spring barley (Year 2015, 5 μM foliar spray). Also, the “WTK, % of control” value in the series with winter oilseed rape is given as 110%. In addition, in the series with spring barley (Year 2014, 25 μM foliar spray), the “grains per ear, % of control” value is on record as 104.6%.
